From ChEMBL document CHEMBL3885861, “Open TG-GATES”

Organism: Rattus norvegicus
Assay: Open TG-GATES - Regimen: Single
Format: toxicity, organism-based, Sprague-Dawley
Design: regimen Single, gender Male, age 6 weeks
Conditions: in vivo, iv, route intravenous injection; for KIDNEY_L / KIDNEY_R / KIDNEY_TOTAL: tissue Kidney; for LIVER: tissue Liver; for ALP / ALT / AST / CRE / DBIL / GLC / IP / K / LDH / PL / RALB / TBIL / TC / TG / TP / gamma-GTP / BUN: tissue Plasma
[1] = 10 mg/kg, 3 h, tissue Blood, dose level Low
[2] = 10 mg/kg, 6 h, tissue Blood, dose level Low
[3] = 10 mg/kg, 9 h, tissue Blood, dose level Low
[4] = 10 mg/kg, 24 h, tissue Blood, dose level Low
[5] = 30 mg/kg, 3 h, tissue Blood, dose level Middle

GENTAMICIN
Lym [1]: 78.8%
MCH [1]: 21.8 pg
MCHC [1]: 34.1%
MCV [1]: 64 fL
Mono [1]: 3%
Neu [1]: 17%
PT [1]: 16.2 s
Plat [1]: 121.8 x10_4/uL
RBC [1]: 595.2 x10_4/ul
Ret [1]: 7.2%
WBC [1]: 114 x10_2/uL
KIDNEY_L (10 mg/kg, 3 h, dose level Low): 0.9 g
KIDNEY_R (10 mg/kg, 3 h, dose level Low): 1 g
KIDNEY_TOTAL (10 mg/kg, 3 h, dose level Low): 1.9 g
LIVER (10 mg/kg, 3 h, dose level Low): 9.7 g
ALP (10 mg/kg, 3 h, dose level Low): 1674.8 IU/L
ALT (10 mg/kg, 3 h, dose level Low): 40.6 IU/L
AST (10 mg/kg, 3 h, dose level Low): 72.8 IU/L
CRE (10 mg/kg, 3 h, dose level Low): 0.2 mg/dL
DBIL (10 mg/kg, 3 h, dose level Low): 0.002 mg/dL
GLC (10 mg/kg, 3 h, dose level Low): 181.2 mg/dL
IP (10 mg/kg, 3 h, dose level Low): 7.8 mg/dL
K (10 mg/kg, 3 h, dose level Low): 4.2 meq/L
LDH (10 mg/kg, 3 h, dose level Low): 188 IU/L
PL (10 mg/kg, 3 h, dose level Low): 131.8 mg/dL
RALB (10 mg/kg, 3 h, dose level Low): 2.9 g/dL
TBIL (10 mg/kg, 3 h, dose level Low): 0.018 mg/dL
TC (10 mg/kg, 3 h, dose level Low): 66.6 mg/dL
TG (10 mg/kg, 3 h, dose level Low): 91.4 mg/dL
TP (10 mg/kg, 3 h, dose level Low): 5.3 g/dL
gamma-GTP (10 mg/kg, 3 h, dose level Low): 1.4 IU/L
TERMINAL_BW (10 mg/kg, 6 h, dose level Low): 207.8 g
APTT [2]: 23.6 s
Bas [2]: 0%
Eos [2]: 0.8%
Fbg [2]: 282.6 mg/dL
Ht [2]: 39.5%
Lym [2]: 83%
MCH [2]: 21 pg
Mono [2]: 2.8%
PT [2]: 15.9 s
Plat [2]: 131.7 x10_4/uL
RBC [2]: 634.2 x10_4/ul
Ret [2]: 6.8%
WBC [2]: 102.7 x10_2/uL
KIDNEY_L (10 mg/kg, 6 h, dose level Low): 0.9 g
KIDNEY_R (10 mg/kg, 6 h, dose level Low): 0.9 g
KIDNEY_TOTAL (10 mg/kg, 6 h, dose level Low): 1.8 g
LIVER (10 mg/kg, 6 h, dose level Low): 8.7 g
ALP (10 mg/kg, 6 h, dose level Low): 1173 IU/L
ALT (10 mg/kg, 6 h, dose level Low): 36.4 IU/L
AST (10 mg/kg, 6 h, dose level Low): 68.8 IU/L
CRE (10 mg/kg, 6 h, dose level Low): 0.2 mg/dL
DBIL (10 mg/kg, 6 h, dose level Low): 0.002 mg/dL
GLC (10 mg/kg, 6 h, dose level Low): 175 mg/dL
IP (10 mg/kg, 6 h, dose level Low): 9.1 mg/dL
K (10 mg/kg, 6 h, dose level Low): 4.3 meq/L
LDH (10 mg/kg, 6 h, dose level Low): 216.2 IU/L
PL (10 mg/kg, 6 h, dose level Low): 139.6 mg/dL
RALB (10 mg/kg, 6 h, dose level Low): 3 g/dL
TBIL (10 mg/kg, 6 h, dose level Low): 0.022 mg/dL
TC (10 mg/kg, 6 h, dose level Low): 77.6 mg/dL
TG (10 mg/kg, 6 h, dose level Low): 74.8 mg/dL
TP (10 mg/kg, 6 h, dose level Low): 5.4 g/dL
gamma-GTP (10 mg/kg, 6 h, dose level Low): 1.6 IU/L
TERMINAL_BW (10 mg/kg, 9 h, dose level Low): 208.7 g
APTT [3]: 23.8 s
Bas [3]: 0%
Eos [3]: 0.8%
Fbg [3]: 317.6 mg/dL
Ht [3]: 39.5%
Lym [3]: 80.6%
MCHC [3]: 33.4%
Mono [3]: 3.2%
PT [3]: 16.2 s
Plat [3]: 125.8 x10_4/uL
RBC [3]: 642.4 x10_4/ul
Ret [3]: 6.1%
WBC [3]: 90.1 x10_2/uL
KIDNEY_L (10 mg/kg, 9 h, dose level Low): 1 g
KIDNEY_R (10 mg/kg, 9 h, dose level Low): 1 g
KIDNEY_TOTAL (10 mg/kg, 9 h, dose level Low): 1.9 g
LIVER (10 mg/kg, 9 h, dose level Low): 8.2 g
ALP (10 mg/kg, 9 h, dose level Low): 1357 IU/L
AST (10 mg/kg, 9 h, dose level Low): 66.4 IU/L
BUN (10 mg/kg, 9 h, dose level Low): 11 mg/dL
CRE (10 mg/kg, 9 h, dose level Low): 0.1 mg/dL
DBIL (10 mg/kg, 9 h, dose level Low): 0.004 mg/dL
GLC (10 mg/kg, 9 h, dose level Low): 180.6 mg/dL
IP (10 mg/kg, 9 h, dose level Low): 8.9 mg/dL
K (10 mg/kg, 9 h, dose level Low): 4.2 meq/L
LDH (10 mg/kg, 9 h, dose level Low): 120.2 IU/L
PL (10 mg/kg, 9 h, dose level Low): 128 mg/dL
RALB (10 mg/kg, 9 h, dose level Low): 3 g/dL
TBIL (10 mg/kg, 9 h, dose level Low): 0.026 mg/dL
TC (10 mg/kg, 9 h, dose level Low): 69 mg/dL
TG (10 mg/kg, 9 h, dose level Low): 56 mg/dL
TP (10 mg/kg, 9 h, dose level Low): 5.4 g/dL
gamma-GTP (10 mg/kg, 9 h, dose level Low): 1 IU/L
TERMINAL_BW (10 mg/kg, 24 h, dose level Low): 226 g
APTT [4]: 23.6 s
Bas [4]: 0%
Eos [4]: 0.8%
Fbg [4]: 300.6 mg/dL
Ht [4]: 38.7%
Lym [4]: 80.4%
MCHC [4]: 34%
MCV [4]: 61.6 fL
Mono [4]: 3.2%
Plat [4]: 126.1 x10_4/uL
RBC [4]: 628.8 x10_4/ul
Ret [4]: 6.2%
WBC [4]: 119.3 x10_2/uL
KIDNEY_L (10 mg/kg, 24 h, dose level Low): 1 g
KIDNEY_R (10 mg/kg, 24 h, dose level Low): 1 g
KIDNEY_TOTAL (10 mg/kg, 24 h, dose level Low): 1.9 g
LIVER (10 mg/kg, 24 h, dose level Low): 10.2 g
ALP (10 mg/kg, 24 h, dose level Low): 1490.2 IU/L
ALT (10 mg/kg, 24 h, dose level Low): 37.8 IU/L
AST (10 mg/kg, 24 h, dose level Low): 68.2 IU/L
BUN (10 mg/kg, 24 h, dose level Low): 16.6 mg/dL
CRE (10 mg/kg, 24 h, dose level Low): 0.2 mg/dL
DBIL (10 mg/kg, 24 h, dose level Low): 0 mg/dL
IP (10 mg/kg, 24 h, dose level Low): 6.4 mg/dL
K (10 mg/kg, 24 h, dose level Low): 4.5 meq/L
LDH (10 mg/kg, 24 h, dose level Low): 171.6 IU/L
PL (10 mg/kg, 24 h, dose level Low): 139.2 mg/dL
RALB (10 mg/kg, 24 h, dose level Low): 2.9 g/dL
TBIL (10 mg/kg, 24 h, dose level Low): 0.01 mg/dL
TC (10 mg/kg, 24 h, dose level Low): 69.4 mg/dL
TG (10 mg/kg, 24 h, dose level Low): 100 mg/dL
TP (10 mg/kg, 24 h, dose level Low): 5.4 g/dL
gamma-GTP (10 mg/kg, 24 h, dose level Low): 1.2 IU/L
TERMINAL_BW (30 mg/kg, 3 h, dose level Middle): 214 g
APTT [5]: 23.2 s
Bas [5]: 0%
Eos [5]: 1%
Fbg [5]: 287.4 mg/dL
Ht [5]: 39.3%
Lym [5]: 79%
MCHC [5]: 34%
